The record followed here is patent publication US10710992B2, “Substituted pyridinones as bromodomain inhibitors” (Zenith Epigenetics Ltd., priority 2014, dated 2020).

For one test, the system named is hApoA-1 mRNA. Briefly: Up-regulation of hApoA-1 mRNA transcription in Huh7 cells. It is filed as cell-based, Human. The settings on record: EC170, Huh7 cells, 48 h. On the procedure: In this example, hApoA-1 mRNA in tissue culture cells was quantitated to measure the transcriptional up-regulation of hApoA-1 when treated with a compound of the present disclosure.
Huh7 cells (2.5×10^5 per well) were plated in a 96-well plate using 100 μL DMEM per well, (Gibco DMEM supplemented with penicillin streptomycin and 10% FBS), 72 h before the addition of the compound. The cells are treated with increasing concentrations of the compound or DMSO (0.1%), and incubated at 37° C., 5% CO2 for 48 h. Spent media was removed from the Huh-7 cells and placed on ice for immediate use with the “LDH cytotoxicity assay Kit II” from Abcam. The cells remaining in the plate were rinsed with 100 μL PBS. Cells were harvested using the mRNA Catcher PLUS kit according to manufacturer's instructions. The eluted mRNA was then used in a one-step quantitative real-time PCR reaction, using components of the RNA UltraSense™ One-Step Kit (Life Technologies) together with Applied Biosystems TaqMan® primer-probes for hApoA-1 and Cyclophilin. Real-time PCR plates were run on a ViiA™ 7 real time PCR machine (Applied Biosystems), data was analyzed, normalizing the Ct values for hApoA-1 to an internal control, prior to determining the fold induction of each unknown sample, relative to the control.

The target in test [1] is T1, Brd4 bromodomain 1 (BRD4(1)) (Homo sapiens, UniProt O60885).
T1 construct: made in house; host or cells: E. coli BL21(DE3)
Nature of the test: Inhibition of tetra-acetylated histone H4 binding to BET bromodomain (HTRF/FRET). The settings on record: His-tagged bromodomain 200 nM, tetra-acetylated histone H4 peptide, 2 h room temperature. The protocol:
Proteins were cloned and overexpressed with a N-terminal 6× His tag, then purified by nickel affinity followed by size exclusion chromatography. Briefly, E. coli BL21(DE3) cells were transformed with a recombinant expression vector encoding N-terminally Nickel affinity tagged bromodomains from Brd2, Brd3, Brd4. Cell cultures were incubated at 37° C. with shaking to the appropriate density and induced overnight with IPTG. The supernatant of lysed cells was loaded onto Ni-IDA column for purification. Eluted protein was pooled, concentrated and further purified by size exclusion chromatography. Fractions representing monomeric protein were pooled, concentrated, aliquoted, and frozen at −80° C. for use in subsequent experiments.
Binding of tetra-acetylated histone H4 and BET bromodomains was confirmed by a Homogenous Time Resolved Fluorescence Resonance Energy Transfer (HTRF®) method. N-terminally His-tagged bromodomains (200 nM) and biotinylated tetra-acetylated historic H4 peptide (25-50 nM, Millipore) were incubated in the presence of Europium Cryptate-labeled streptavidin (Cisbio Cat. #610SAKLB) and XL665-labeled monoclonal anti-His antibody (Cisbio Cat. #61HISXLB) in a white 96 well microtiter plate (Greiner). For inhibition assays, serially diluted test compound was added to these reactions in a 0.2% final concentration of DMSO. Duplicate wells were used for each concentration tested. Final buffer concentrations were 30 mM HEPES pH 7.4, 30 mM NaCl, 0.3 mM CHAPS, 20 mM phosphate pH 7.0, 320 mM KF, 0.08% BSA. After a 2 h incubation at room temperature, fluorescence was measured at 665 and 620 nm with a SynergyH4 plate reader (Biotek). The binding inhibitory activity was shown by a decrease in 665 nm relative to […] fluorescence. IC50 values were determined from a dose response curve.
For orientation: Time-resolved FRET reads energy transfer from a long-lived donor to a nearby acceptor.

Another test deals with hIL-6 mRNA. Briefly: Inhibition of hIL-6 mRNA transcription in LPS-stimulated U937 cells. The settings on record: Homo sapiens, U-937; PMA-differentiated U937 cells, 1 h pretreatment, LPS 1 ug/mL, 3 h; read-out: IL-6 activity. The test is classed as cell-based. On the procedure:
Human leukemic monocyte lymphoma U937 cells (CRL-1593.2) were plated at a density of 3.2×10^4 cells per well in a 96-well plate in 100 μL RPMI-1640 containing 10% FBS and penicillin/streptomycin, and differentiated into macrophages for 3 days in 60 ng/mL PMA ([…]) at 37° C. in 5% CO2 prior to the addition of compound. The cells were pretreated for 1 h with increasing concentrations of test compound in 0.1% DMSO prior to stimulation with 1 ug/mL lipopolysaccharide from Escherichia coli. Triplicate wells were used for each concentration. The cells were incubated at 37° C., 5% CO2 for 3 h before the cells were harvested. At time of harvest, media was removed and cells were rinsed in 200 μL PBS. Cells were harvested using the mRNA Catcher PLUS kit according to manufacturer's instructions. The eluted mRNA was then used in a one-step quantitative real-time PCR reaction using components of the RNA UltraSense™ One-Step Kit (Life Technologies) together with Applied Biosystems TaqMan® primer-probes for hIL-6 and Cyclophilin. Real-time PCR plates were run on a ViiA™ 7 real time PCR machine (Applied Biosystems), data was analyzed, normalizing the Ct values for hIL-6 to an internal control, prior to determining the fold expression of each sample, relative to the control.

The test system of a further test is Human AML MV-4-11 cells. Briefly: Inhibition of cell proliferation in cancer cell lines (CellTiter Aqueous One). It is filed as cell-based. The settings on record: MV4-11 cells, 72 h; for IC50: Homo sapiens. On the procedure:
MV4-11 cells (CRL-9591) were plated at a density of 5×10^4 cells per well in 96 well flat bottom plates and treated with increasing concentrations of test compound or DMSO (0.1%) in IMDM media containing 10% FBS and penicillin/streptomycin. Triplicate wells were used for each concentration and a well containing only media was used as a control. Plates were incubated at 37° C., 5% CO2 for 72 h before adding 20 μL of the CellTiter Aqueous One Solution (Promega) to each well and incubated at 37° C., 5% CO2 for an additional 3-4 h. The absorbance was read at 490 nm in a spectrophotometer and the percentage of cell titer relative to DMSO-treated cells was calculated after correcting for background by subtracting the blank well's signal. IC50 values were calculated using the GraphPad Prism software.

In test [2] the test system is c-myc in Human AML MV4-11 cells. Briefly: Inhibition of cMYC expression in cancer cell lines (mRNA, real-time PCR). The test is classed as cell-based. Particulars: 3 h, cMYC mRNA normalized to Cyclophilin; for IC50: Homo sapiens. On the procedure:
MV4-11 cells (CRL-9591) were plated at a density of 2.5×10^4 cells per well in 96 well U-bottom plates and treated with increasing concentrations of test compound or DMSO (0.1%) in IMDM media containing 10% FBS and penicillin/streptomycin, and incubated for 3 h at 37° C. Triplicate wells were used for each concentration. Cells were pelleted by centrifugation and harvested using the mRNA Catcher PLUS kit according to manufacturer's instructions. The eluted mRNA isolated was then used in a one-step quantitative real-time PCR reaction, using components of the RNA UltraSense™ One-Step Kit (Life Technologies) together with Applied Biosystems TaqMan® primer-probes for cMYC and Cyclophilin. Real-time PCR plates were run on a ViiA™ 7 real time PCR machine (Applied Biosystems), data was analyzed, normalizing the Ct values for cMYC to an internal control, prior to determining the fold expression of each sample, relative to the control.
(In qPCR the cycle at which signal appears reflects the starting amount.)

The test system of the next test is hIL-17 mRNA. Briefly: Inhibition of hIL-17 mRNA transcription in OKT3-stimulated peripheral blood mononuclear cells. The test is classed as cell-based. Particulars: human PBMC, 1 h pretreatment, OKT3 antibody, 6 h; read-out: IL-17 activity. The protocol:
Human peripheral blood mononuclear cells were plated (2.0×10^5 cells per well) in a 96-well plate in 45 μL. OpTimizer T Cell expansion media (Life Technologies) containing 20 ng/ml IL-2 and penicillin/streptomycin. The cells were treated with increasing concentrations of the test compound or DMSO (0.1%), and incubated at 37° C., 5% CO2 for 1 h before addition of 10× stock OKT3 antibody at 10 ug/ml in media. Triplicate wells were used for each concentration. Cells were incubated at 37° C., 5% CO2 for 6 h before the cells were harvested. At time of harvest, cells were pelleted by centrifugation at 800 rpm for 5 min. Cells were harvested using the mRNA Catcher PLUS kit according to manufacturer's instructions. The eluted mRNA was then used in a one-step quantitative real-time PCR reaction, using components of the RNA UltraSense™ One-Step Kit (Life Technologies) together with Applied Biosystems TaqMan® primer-probes for hIL-17 and Cyclophilin. Real-time PCR plates were run on a ViiA™ 7 real time PCR machine (Applied Biosystems), data was analyzed, normalizing the Ct values for hIL-17 to an internal control, prior to determining the fold induction of each unknown sample, relative to the control.

As for `Cc1noc(C)c1-c1c[nH]c(=O)c(Nc2ccccc2)c1` [Example 1, 5-(3,5-dimethylisoxazol-4-yl)-3-(phenylamino)pyridin-2(1H)-one], in the test on hApoA-1 mRNA, the ApoA-1 activity entry is “++ (EC170 value between 0.3 and 3 μM were deemed to be very active (++))”. Further, the IC50 in test [1] was 300 to 3000 nM; in the test on hIL-6 mRNA, 300 to 3000 nM; in the test on Human AML MV-4-11 cells it was 3000 to 30000 nM; in test [2], 3000 to 30000 nM.
Take `Cc1noc(C)c1-c1c[nH]c(=O)c(NC(C)c2ccccn2)c1` (centres unmarked) [Example 20, 5-(3,5-dimethylisoxazol-4-yl)-3-((1-(pyridin-2-yl)ethyl)amino)pyridin-2(1H)-one]: the IC50 was not above 300 nM in test [1]; 300 to 3000 nM with hIL-6 mRNA; 300 to 3000 nM in the test on Human AML MV-4-11 cells; 300 to 3000 nM in test [2]; 300 to 3000 nM in the test with hIL-17 mRNA.
Turning to `Cc1noc(C)c1-c1c[nH]c(=O)c(NCc2ccccc2)c1` [Example 4, 3-(benzylamino)-5-(3,5-dimethylisoxazol-4-yl)pyridin-2(1H)-one], the IC50 was not above 300 nM in test [1]; 300 to 3000 nM with hIL-6 mRNA; 300 to 3000 nM with Human AML MV-4-11 cells; 300 to 3000 nM in test [2]; 300 to 3000 nM in the test with hIL-17 mRNA.
Turning to `Cc1noc(C)c1-c1c[nH]c(=O)c(OCc2ccc(F)cc2)c1` [Example 27, 5-(3,5-dimethylisoxazol-4-yl)-3-((4-fluorobenzyl)oxy)pyridin-2(1H)-one], the IC50 lay within 300 to 3000 nM in test [1], 300 to 3000 nM in the test on hIL-6 mRNA, 3000 to 30000 nM in the test on Human AML MV-4-11 cells and 300 to 3000 nM in test [2].
On to `Cc1noc(C)c1-c1c[nH]c(=O)c(N[C@H](C)c2ccccn2)c1` (single isomer, unassigned) [Example 42], for which the IC50 in test [1] is not above 300 nM; with hIL-6 mRNA, 300 to 3000 nM; in the test on Human AML MV-4-11 cells it was 300 to 3000 nM. Besides, the c-myc activity result in test [2] was “Not Active”.
For `Cc1noc(C)c1-c1c[nH]c(=O)c(NCc2ccc(C#N)s2)c1` [Example 36, 5-(((5-(3,5-dimethylisoxazol-4-yl)-2-oxo-1,2-dihydropyridin-3-yl)amino)methyl)thiophene-2-carbonitrile], the IC50 in test [1] was not above 300 nM; in the test with hIL-6 mRNA, 300 to 3000 nM; with Human AML MV-4-11 cells it was 3000 to 30000 nM; in test [2] it was 3000 to 30000 nM.
Regarding `Cc1noc(C)c1-c1c[nH]c(=O)c(NCc2ccc(I)cc2)c1` [Example 24, 5-(3,5-dimethylisoxazol-4-yl)-3-((4-iodobenzyl)amino)pyridin-2(1H)-one], the values for the IC50 (in test [1]; in the test with hIL-6 mRNA) were not above 300 nM and 3000 to 30000 nM, respectively. The “Cell Proliferation activity” value with Human AML MV-4-11 cells is reported as “Not Active”. Moreover, the c-myc activity result in test [2] was “Not Active”.
For `Cc1noc(C)c1-c1c[nH]c(=O)c(Nc2cccnc2)c1` [Example 2, 5-(3,5-dimethylisoxazol-4-yl)-3-(pyridin-3-ylamino)pyridin-2(1H)-one], the ApoA-1 activity result in the test with hApoA-1 mRNA is “+ (EC170 value between 3 and 30 μM were deemed to be active (+))”. In addition, the IC50 (in test [1]; with hIL-6 mRNA) was 3000 to 30000 nM in each case.
`Cc1noc(C)c1-c1c[nH]c(=O)c(NCc2nccs2)c1` [Example 30, 5-(3,5-dimethylisoxazol-4-yl)-3-((thiazol-2-ylmethyl)amino)pyridin-2(1H)-one]: the IC50 was not above 300 nM in test [1], 300 to 3000 nM in the test with hIL-6 mRNA, 300 to 3000 nM with Human AML MV-4-11 cells and 3000 to 30000 nM in test [2].
Turning to `Cc1noc(C)c1-c1c[nH]c(=O)c(NCc2ccc(F)cc2)c1` [Example 21, 5-(3,5-dimethylisoxazol-4-yl)-3-((4-fluorobenzyl)amino)pyridin-2(1H)-one], the IC50 in test [1] was not above 300 nM; in the test with hIL-6 mRNA, 300 to 3000 nM; in the test with Human AML MV-4-11 cells, 300 to 3000 nM; in test [2], 300 to 3000 nM.
Turning to `Cc1noc(C)c1-c1c[nH]c(=O)c(NCc2ccccn2)c1` [Example 17, 5-(3,5-dimethylisoxazol-4-yl)-3-((pyridin-2-ylmethyl)amino)pyridin-2(1H)-one], the IC50 in test [1] was not above 300 nM; in the test on hIL-6 mRNA, 300 to 3000 nM; with Human AML MV-4-11 cells, 3000 to 30000 nM; in test [2], 300 to 3000 nM; in the test on hIL-17 mRNA, 300 to 3000 nM.
